From patent US20190119282A1, “IMIDAZOPYRIDAZINES USEFUL AS INHIBITORS OF THE PAR-2 SIGNALING PATHWAY” (Vertex Pharmaceuticals Incorporated, priority 2013, published 2019)
Marks after values point to notes of the source that are not given here.

Assays:
[1] = system: UTP-stimulated Ca2+ response in HT-29 cells; assay: Ca FLIPR TETRA assay, ANTAGONIST mode, stimulation with 0.6 μM UTP; format: cell-based, human; conditions: Homo sapiens; HT-29 cells, antagonist mode, stimulation with 0.6 μM UTP
Summary of the method: (§1)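 Antagonist-mode assay: dye-loaded HT-29 cells, compound 30 min at r.t., then stimulated with final 8 μM SLIGKV, 3.1 U/mL trypsin, 1 U/mL thrombin or 0.6 μM UTP; calcium fluorescence read.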

[2] = system: carrageenan-induced paw edema; assay: Rat carrageenan-induced paw edema model; format: in vivo, Sprague Dawley rats; conditions: for % inhibition of carrageenan induced paw edema: given before carrageenan challenge; for % inhibition of an established carrageenan induced rat paw edema: given 2 hours post carrageenan challenge
Summary of the method: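 Rats received intraplantar 1% carrageenan (100 ul) under isoflurane. Test compound in 0.5% MC/0.1% SDS was given systemically at 5 mL/kg either 1-3 h before or 2 h after the challenge. Paw swelling was measured by plethysmometer at 2-6 h and expressed as mean % effect.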

[3] = target: T1, PAR2 (HT-29 cells, trypsin activation) (Homo sapiens, UniProt P55085); assay: Ca FLIPR TETRA assay, ANTAGONIST mode, stimulation with 3.1 U/mL trypsin; format: cell-based; conditions: HT-29 cells, antagonist mode, stimulation with 3.1 U/mL trypsin
T1 construct: host or cells: HT-29 cells
T1 sequence (P55085 26-397): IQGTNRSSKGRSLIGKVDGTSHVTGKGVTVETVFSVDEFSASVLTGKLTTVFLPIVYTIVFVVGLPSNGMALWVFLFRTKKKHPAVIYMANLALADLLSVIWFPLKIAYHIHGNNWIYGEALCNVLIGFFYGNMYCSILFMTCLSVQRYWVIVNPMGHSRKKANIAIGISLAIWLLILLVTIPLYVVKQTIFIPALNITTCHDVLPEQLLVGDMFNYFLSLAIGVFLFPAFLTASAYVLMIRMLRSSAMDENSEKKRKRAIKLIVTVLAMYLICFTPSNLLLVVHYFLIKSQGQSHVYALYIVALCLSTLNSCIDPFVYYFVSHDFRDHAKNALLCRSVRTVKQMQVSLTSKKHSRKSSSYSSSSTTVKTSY
Summary of the method: as §1

In the case of `Cc1nc(C(=O)N2CCN(C(=O)c3cn4nc(-c5ccc(F)cc5)cc(C(C)(C)C)c4n3)C(C)(C)C2)n[nH]1` [Compound I-343, (8-(tert-butyl)-6-(4-fluorophenyl)imidazo[1,2-b]pyridazin-2-yl)(2,2-dimethyl-4-(5-methyl-1H-1,2,4-triazole-3-carbonyl)piperazin-1-yl)methanone], the IC50 [1] is reported as 1030 nM, the “% inhibition of carrageenan induced paw edema” value ([2]; dose 0.3 mg/kg) is reported as 19* % and the “% inhibition of an established carrageenan induced rat paw edema” value ([2]; dose 3 mg/kg) is reported as 32** %. For the same compound, the “% inhibition of carrageenan induced paw edema” value ([2]; dose 3 mg/kg) was 28* %, the “% inhibition of an established carrageenan induced rat paw edema” value ([2]; dose 10 mg/kg) was 49** % and the “% inhibition of carrageenan induced paw edema” value ([2]; dose 10 mg/kg) was 34* %. The “% inhibition of an established carrageenan induced rat paw edema” value ([2]; dose 30 mg/kg) was 58** %, the “% inhibition of carrageenan induced paw edema” value ([2]; dose 30 mg/kg) was 50*** % and the “% inhibition of an established carrageenan induced rat paw edema” value ([2]; dose 60 mg/kg) was 70*** %. For the same compound, the IC50 [3] was 0.8 nM.
